{"source": "paper PMC10781691", "about": "“Vertical pathway inhibition of receptor tyrosine kinases and BAD with synergistic efficacy in triple negative breast cancer” (NPJ Precision Oncology, 2024)", "key": {"[1]": {"test_system": "BAD phosphorylation at Ser99", "assay": "Western blot of BAD phosphorylation at Ser99 in TNBC cells", "format": "cell-based, human", "details": "MDA-MB-231 and BT549 cells; for level of pBADSer99/BAD: 1 μM"}, "BT549 cells": {"test_system": "BT549 cells", "assay": "AlamarBlue cell viability, 3D Matrigel culture", "format": "cell-based, human"}, "MDA-MB-231 cells": {"test_system": "MDA-MB-231 cells", "assay": "Annexin V-PI apoptosis flow cytometry", "details": "MDA-MB-231, 5 μM", "description": "Representative flow cytometry plots of Annexin-V and propidium iodide (PI) stained apoptotic\nor NPB using flow cytometry analysis. Annexin V-FITC staining is indicated on the x axis, and PI staining is indicated on the y axis. The lower left quadrants represent live cells, the lower right quadrants represent early apoptotic cells, the upper left quadrants represent necrotic cells, and the upper right quadrants display late apoptotic cells. Acquisition of Annexin V and PI data are presented as a percentage (%) in each quadrant. Early apoptotic cells are referred to as Annexin- V positive and late apoptotic cells are referred to as Annexin-V and PI double positive."}, "MDA-MB-231 xenografts": {"test_system": "MDA-MB-231 xenografts", "assay": "Orthotopic xenograft, combination study", "format": "in vivo", "details": "Balb/c-nude mice, day 22; NCK 20 mg/kg, OSI 50 mg/kg, CRI 50 mg/kg"}, "[2]": {"test_system": "BAD phosphorylation at Ser75 and Ser118", "assay": "Western blot of BAD phosphorylation at Ser75 and Ser118 in TNBC cells", "format": "cell-based, human", "details": "MDA-MB-231 and BT549 cells", "protocol": "(§1) To compare the binding affinity of NCK and NPB towards BAD, we performed surface plasmon resonance (SPR) measurement by immobilizing BAD protein on a sensor chip with NCK or NPB as analyte. Representative reference-subtracted overlaid sensorgrams and the kinetic parameters are specified in Fig. 2d and Supplementary Fig. 6A. […] Additionally, the pharmacological inhibition of BAD phosphorylation by NCK or NPB in TNBC cells was evaluated. […] Furthermore, the comparative potencies of NPB and NCK were evaluated in eight TNBC cell lines using total cell number assay in 2D culture and cell viability in 3D culture (Supplementary Fig. 6C, D)."}, "4T1-luciferase cells": {"test_system": "4T1-luciferase cells", "protocol": "Since metastasis is the primary contributor to mortality and poor prognosis for TNBC patients, the therapeutic potential of NCK, TKIs or combined NCK-TKI treatment on TNBC metastasis was further evaluated with an experimental lung metastasis model.\n(§2) In vivo bioluminescent imaging was performed to determine the incidence and metastatic burden of luciferase-labeled 4T1 cells. Mice were injected i.p. with 10 mg/ml of D-luciferin (Gold Biotechnology, MO, USA) and imaged using a PerkinElmer IVIS Spectrum system. PDX were generated as previously described by transplanting fresh fragments orthotopically into 8-week-old female nonobese diabetic (NOD)/severe combined immunodeficient (SCID) mice (Beijing Vital River Laboratory Animal Technology Co., Beijing, China) (P1, passage 1)[40]. The P1 xenografts were then fragmented, digested into single-cell suspension and implanted into mammary fat pad (100 μL PBS containing growth factor reduced 50% Matrigel) of NOD/SCID mice. Once orthotopic xenografts reached an approximate size of 100 mm^3, the mice were randomly divided into three groups (n = 8) for single drug studies and six groups (n = 6) for combination studies and Kaplan-Meier (KM) analyses. […] Animal body weight and xenograft size were measured daily using an electronic balance and a digital caliper, respectively. Xenograft volume (mm^3) was calculated by using the formula: 0.52 × length × [width]^2. Complete response (CR) was achieved if the average xenograft volume for the treatment group was unable to be determined for two or more consecutive measurements. Partial response (PR) was achieved if the average xenograft volume reduced to <50 mm^3 for two or more consecutive measurements. After 3-week drug treatment, all mice were sacrificed by CO2 inhalation. Tumor and vital organs were weighed and isolated for further analysis. IHC analysis of xenograft histology sections and quantitative polymerase chain reaction (qPCR) were performed as previously described. […] For PDX, xenograft growth was monitored daily by measurement of the xenograft volume until mice humane endpoint ( ~ 1000 mm^3).\nluciferase cell generated metastasis model. Scale bar, 20 µm. (C) Animal weight of each\ntreatment group was indicated. (D) Changes in relative lung, liver, spleen, heart and kidney\n(CRI) or combinations during the study at day 9."}, "[3]": {"assay": "Pharmacokinetics after IV and oral administration", "format": "in vivo, Sprague-Dawley (SD) rats", "design": "AUClast/D: unit not given here", "details": "SD rats; for MRT inf: read-out: MRTInf_obs", "protocol": "The pharmacokinetics of NCK were determined via intravenous (IV) and oral administration in Sprague-Dawley (SD) rats (Supplementary Fig. 7).\nSupplementary Figure 7: (A) Plasma concentration of NCK after intravenous (IV, 1 mg/kg) (red) or oral (PO, 10 mg/kg) (blue) administration in SD rats. Results represent the mean ± SD of three animals. (B) Pharmacokinetic parameters of NCK in plasma after IV injection (1 mg/kg) or oral administration (10 mg/kg). AUCinf: Area Under the Plasma Concentration-Time Curve from t=0 to infinity; AUClast: Area Under the Plasma Concentration-Time Curve from t=0 to last measurable positive concentration; AUC_%Extrap_obs: Percent Extrapolated AUC from tlast to infinity; C0: Initial concentration in plasma; Cmax: Peak concentration in plasma; Cl_obs:\nPlasma systemic clearance; F: Absolute oral bioavailability; MRTInf_obs: Mean residence time from t=0 to infinity ;T1/2: Elimination half- life; Tmax: Time of peak concentration in plasma; Vss_obs: Volume of Distribution at Steady- state"}, "USTC-0 PDX": {"test_system": "USTC-0 PDX", "assay": "TNBC patient-derived xenograft", "format": "in vivo, NOD/SCID mice", "details": "for survival of PDX-bearing mice / Median survival: USTC-0; for survival of PDX-bearing mice: single agents vs vehicle, combinations vs OSI-930 or Crizotinib alone; for Median survival: vehicle 25.5", "protocol": "(§3) The effect of drug treatments on two patient-derived xenograft (PDX) models of TNBC, USTC-0 and USTC-1 were next examined. The use of the USTC-1 PDX was previously reported.\nas §2"}, "USTC-1 PDX": {"test_system": "USTC-1 PDX", "assay": "TNBC patient-derived xenograft", "format": "in vivo, NOD/SCID mice", "details": "for Median survival: USTC-1, vehicle 22.5", "protocol": "as §3, §2"}, "Recombinant human BAD": {"target": "T1, Recombinant human BAD (Homo sapiens, UniProt Q92934)", "T1 construct": "purchased Novoprotein, Suzhou, China", "T1 sequence (Q92934 whole entry)": "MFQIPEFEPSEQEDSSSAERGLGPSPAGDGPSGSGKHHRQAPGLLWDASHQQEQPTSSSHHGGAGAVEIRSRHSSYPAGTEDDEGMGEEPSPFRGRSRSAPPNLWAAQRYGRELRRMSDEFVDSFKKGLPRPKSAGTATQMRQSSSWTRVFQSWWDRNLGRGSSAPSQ", "assay": "SPR (BIAcore) with BAD immobilized on sensor chip", "format": "binding", "details": "analyte 1.25–160 μM", "protocol": "as §1"}, "c-Kit": {"test_system": "c-Kit", "details": "read-out: potency on Kit; cited from earlier work"}, "Flt1": {"test_system": "Flt1", "design": "method as in SelleckChem", "details": "ref SelleckChem; cited from earlier work"}, "[4]": {"details": "BALB/c mice, day 9, NCK 20 mg/kg, OSI 50 mg/kg, CRI 50 mg/kg"}, "[5]": {"details": "Sprague-Dawley, rat, plasma, IV 1 mg/kg"}, "[6]": {"details": "Sprague-Dawley, rat, plasma, PO 10 mg/kg"}}, "note": "Where two headings read alike, the source gives them in different places.", "data": [{"smiles": "Oc1ccccc1C(c1cccnc1)N1CCN(c2cccc(Cl)c2Cl)CC1", "note": "(stereo not drawn) [NCK, 2-((4-(2,3-dichlorophenyl)piperazin-1-yl)(pyridin-3-yl)methyl) phenol]", "values": [{"measurement": "level of pBADSer99/BAD", "setting": "[1]", "value": "significantly decreased the level of pBADSer99/BAD"}, {"measurement": "inhibition of BAD phosphorylation at Ser99 (decreased pBADSer99/BAD ratio), effective concentration", "setting": "[1]; vs DMSO", "value": "≥ 0.1", "unit": "μM"}, {"measurement": "growth in 3D Matrigel", "setting": "BT549 cells; BT549, 5 μM each", "value": "reduced cell growth in 3D Matrigel"}, {"measurement": "fold IC50 difference NCK vs NPB", "setting": "BT549 cells; BT549, 3D Matrigel", "value": "~ 8 fold"}, {"measurement": "IC50", "setting": "BT549 cells; Homo sapiens, BT-549, BT549, 3D Matrigel, AlamarBlue", "value": 0.309, "unit": "µM"}, {"measurement": "induction of apoptosis (early and late)", "setting": "MDA-MB-231 cells", "value": "more potent effect than NPB in inducing apoptosis"}, {"measurement": "Colon Length", "setting": "MDA-MB-231 xenografts", "value": "9.55±0.84", "unit": "cm"}, {"measurement": "Relative Liver Weight", "setting": "MDA-MB-231 xenografts", "value": "5.70±0.38", "unit": "%"}, {"measurement": "levels of pBADSer75/BAD and pBADSer118/BAD", "setting": "[2]", "value": "did not alter"}, {"measurement": "lung metastases (bioluminescent signals) vs control", "setting": "4T1-luciferase cells; 4T1-luciferase metastasis model", "value": "significantly abrogated lung metastases"}, {"measurement": "Relative Heart Weight", "setting": "4T1-luciferase cells; [4]", "value": "0.51±0.07", "unit": "%"}, {"measurement": "Relative Kidney Weight", "setting": "4T1-luciferase cells; [4]", "value": "1.40±0.07", "unit": "%"}, {"measurement": "Relative Liver Weight", "setting": "4T1-luciferase cells; [4]", "value": "4.55±0.21", "unit": "%"}, {"measurement": "Relative Lung Weight", "setting": "4T1-luciferase cells; [4]", "value": "1.70±0.49", "unit": "%"}, {"measurement": "Relative Spleen Weight", "setting": "4T1-luciferase cells; [4]", "value": "1.54±0.54", "unit": "%"}, {"measurement": "AUC_%Extrap_obs", "setting": "[3]; IV 1 mg/kg", "value": 2.51, "unit": "%"}, {"measurement": "AUClast/D", "setting": "[3]; IV 1 mg/kg", "value": 280}, {"measurement": "Vss_obs", "setting": "[3]; IV 1 mg/kg", "value": 5.93, "unit": "L/kg"}, {"measurement": "AUC_%Extrap_obs", "setting": "[3]; PO 10 mg/kg", "value": 2.14, "unit": "%"}, {"measurement": "AUClast/D", "setting": "[3]; PO 10 mg/kg", "value": 105}, {"measurement": "AUC(0-inf)", "setting": "[3]; [5]", "value": 288, "unit": "ng·h/mL"}, {"measurement": "AUC(0-t)", "setting": "[3]; [5]", "value": 280, "unit": "ng·h/mL"}, {"measurement": "C0", "setting": "[3]; [5]", "value": 554, "unit": "ng/mL"}, {"measurement": "half-life", "setting": "[3]; [5]", "value": 3.35, "unit": "h"}, {"measurement": "MRT inf", "setting": "[3]; [5]", "value": 1.72, "unit": "h"}, {"measurement": "bioavailability", "setting": "[3]; Sprague-Dawley, rat, plasma, PO 10 mg/kg vs IV 1 mg/kg, read-out: F (absolute oral bioavailability)", "value": 37.2, "unit": "%"}, {"measurement": "AUC(0-inf)", "setting": "[3]; [6]", "value": 1070, "unit": "ng·h/mL"}, {"measurement": "AUC(0-t)", "setting": "[3]; [6]", "value": 1050, "unit": "ng·h/mL"}, {"measurement": "Cmax", "setting": "[3]; [6]", "value": 346, "unit": "ng/mL"}, {"measurement": "Tmax", "setting": "[3]; [6]", "value": 0.33, "unit": "h"}, {"measurement": "half-life", "setting": "[3]; [6]", "value": 2.68, "unit": "h"}, {"measurement": "MRT inf", "setting": "[3]; [6]", "value": 4, "unit": "h"}, {"measurement": "clearance", "setting": "[3]; Sprague-Dawley, rat, IV 1 mg/kg, plasma, read-out: Cl_obs (clearance)", "value": 58.3, "unit": "mL/min/kg"}, {"measurement": "PDX xenograft volume", "setting": "USTC-0 PDX; USTC-0, 21 days treatment", "value": "significantly reduced the xenograft volume"}, {"measurement": "reduction in xenograft burden vs vehicle", "setting": "USTC-0 PDX; USTC-0, 21 days treatment", "value": 66.0, "unit": "%"}, {"measurement": "survival of PDX-bearing mice", "setting": "USTC-0 PDX", "value": "markedly extended the survival"}, {"measurement": "Median survival", "setting": "USTC-0 PDX", "value": 42.0, "unit": "days"}, {"measurement": "PDX xenograft volume", "setting": "USTC-1 PDX; USTC-1, 21 days treatment", "value": "significantly reduced the xenograft volume"}, {"measurement": "reduction in xenograft burden vs vehicle", "setting": "USTC-1 PDX; USTC-1, 21 days treatment", "value": 45.6, "unit": "%"}, {"measurement": "Median survival", "setting": "USTC-1 PDX", "value": 34.5, "unit": "days"}, {"measurement": "Kd", "setting": "Recombinant human BAD; read-out: Affinity (KD)", "value": 0.0481, "unit": "µM"}, {"measurement": "kon", "setting": "Recombinant human BAD; read-out: Association (Ka)", "value": 111000, "unit": "M⁻¹ s⁻¹"}]}, {"smiles": "O=C(Nc1ccc(OC(F)(F)F)cc1)c1sccc1NCc1ccnc2ccccc12", "note": "[OSI-930]", "values": [{"measurement": "IC50", "setting": "c-Kit", "value": 0.08, "unit": "µM"}, {"measurement": "level of pBADSer99/BAD", "setting": "[1]", "value": "significantly decreased the level of pBADSer99/BAD"}, {"measurement": "Colon Length", "setting": "MDA-MB-231 xenografts", "value": "9.34±0.67", "unit": "cm"}, {"measurement": "PDX xenograft volume", "setting": "USTC-0 PDX; USTC-0, 21 days treatment", "value": "significantly reduced the xenograft volume"}, {"measurement": "survival of PDX-bearing mice", "setting": "USTC-0 PDX", "value": "markedly extended the survival"}, {"measurement": "Median survival", "setting": "USTC-0 PDX", "value": 34.0, "unit": "days"}, {"measurement": "PDX xenograft volume", "setting": "USTC-1 PDX; USTC-1, 21 days treatment", "value": "significantly reduced the xenograft volume"}, {"measurement": "Median survival", "setting": "USTC-1 PDX", "value": 29.5, "unit": "days"}, {"measurement": "IC50", "setting": "Flt1", "value": 0.008, "unit": "µM"}]}]}
